According to US20260248773A1, “POTASSIUM CHANNEL BLOCKERS OR DERIVATIVES THEREOF FOR PREVENTING, ALLEVIATING, AND/OR TREATING TISSUE DYSFUNCTION CAUSED BY TOXIC INSULTS” (priority 2022, published 2026):

Assays:
[1] = tested on: glial fibrillary acidic protein (GFAP); experiment: GFAP immunofluorescence in corpus callosum after PTX with or without 4-AP (Example 9); format: in vivo; conditions: E0771 tumor-bearing mice; PTX 35 mg/kg day one; 4-AP daily
Method: To determine whether 4-AP treatment can prevent PTX-induced increases in a reactive inflammatory response in the brain, as detected by increased expression of glial fibrillary acidic protein (GFAP), 16-week-old female C57BL/6 mice were inoculated with a triple negative murine breast cancer cell line E0771. When tumors were palpable, the mice were injected with either paclitaxel and water, 4-AP, both, or saline as a control. Paclitaxel (35 mg/kg) was injected on day one and 4-AP and water were injected daily. The mice were sacrificed on day nine and their brains were perfused and harvested. Brains were cryosectioned coronally.
The mouse brain sections were stained with anti-GFAP antibodies, followed by a fluorescent secondary, for analysis via immunofluorescence.

[2] = tested on: acute peripheral nerve traumatic crush injuries; conditions: localized peripheral nerve crush injuries; cited from earlier work
[3] = tested on: CIS-induced CIPN; format: in vivo, mice; conditions: 4-AP 1 mg/kg daily for next six weeks
Method: In these experiments, 16-week-old C7BL/6 female mice were treated with CIS (2.5 mg/kg, once weekly, i.p.) for eight weeks. Animals were then treated with 4-AP (1 mg/kg daily) for the next six weeks (n=4).

[4] = tested on: PTX-induced CIPN; experiment: Repetitive PTX exposure, 4-AP weeks 6-12, follow-up to week 18 (Example 6); format: in vivo, mice
Method: To examine this question, 16 week old C7BL/6 female mice were given four cycles of PTX treatment at doses of 35 mg/kg PTX (i.p.). All animals had functionally demonstrable peripheral neuropathy at six weeks. Animals were then treated with the same dose and treatment regimen of 4-AP used in FIG. 5.

[5] = 4-AP 0.5 mg/kg/day weeks 6-12, observed to week 18
[6] = 4-AP 0.5 mg/kg/day weeks 6-12, 12 and 18 week time points

In the case of `Nc1ccncc1` [4-AP, 4-aminopyridine], the “PTX-induced increased expression of GFAP, corpus callosum” value [1] is listed as “greatly reduced”, the “recovery of thermal hyperalgesia and mechanical allodynia” value [2] is listed as “enhanced recovery on the specific parameter or thermal hyperalgesia, but not mechanical allodynia” and the body weight ([3]; CIS 2.5 mg/kg once weekly i.p. for eight weeks) is listed as “regained normal body weight”. The “hyperalgesia, Von Frey filament analysis” value ([3]; CIS eight weeks) was “restoration of normal levels of sensitivity”, the nerve impulse amplitude ([3]; CIS eight weeks) was “also restored by 4-AP treatment” and the nerve impulse velocity ([3]; CIS eight weeks) was “also restored by 4-AP treatment”. For the same compound, the nerve conduction latency ([4]; 4-AP 0.5 mg/kg/day weeks 6-12) was “reverse PTX-induced abnormalities in nerve conduction latency”, the “Catwalk Regularity Index” value [4, 5] was “benefits observed at Week 9 (i.e, after 3 weeks of 4-AP treatment) and retained for at least 6 weeks after 4-AP treatment ended” and the “durability of benefits on peripheral nerve function” value [4, 5] was “Benefits were still present six weeks after the end of treatment”. For the same compound, the “mechanical hypersensitivity, von Frey filament testing” value [4, 5] was “Benefits began to be observed at Week 12 and were maintained at Weeks 15 and 18”, the “paw lifts and jumping behavior, cold-plate stimulus” value [4, 5] was “durable reversal” and the G-ratio [4, 6] was “restored to normal at the 12 week time point, and these benefits are maintained at the 18 week time point”. For the same compound, the circularity [4, 6] was “restored to normal at the 12 week time point, and these benefits are maintained at the 18 week time point”.
